Patent US12447153B2, “HER2 mutation inhibitors” (Array BioPharma Inc., priority 2021, dated 2025)

Experiments:
[1] = biological target: ErbB2 WT (Homo sapiens (Human), UniProt P04626); assay: ErbB Enzyme Assay (HTRF KinEASE-TK), Assay 2; assay type: biochemical
[2] = biological target: EGFR (Homo sapiens (Human), UniProt P00533); assay: ErbB Enzyme Assay (HTRF KinEASE-TK), Assay 3; assay type: biochemical
[3] = biological target: ErbB2 with Exon 20 YVMA insertion (HER2-YVMA) (Homo sapiens (Human), UniProt P04626, INS775YVMA); assay: Cellular Phosphorylation Assay, Assay 4 (constitutive ErbB2 phosphorylation, NIH 3T3 cells); assay type: cell-based
Chain of ErbB2 with Exon 20 YVMA insertion (HER2-YVMA) (P04626 other isoform, or with tags, fused parts or gaps ins YVMA behind 775): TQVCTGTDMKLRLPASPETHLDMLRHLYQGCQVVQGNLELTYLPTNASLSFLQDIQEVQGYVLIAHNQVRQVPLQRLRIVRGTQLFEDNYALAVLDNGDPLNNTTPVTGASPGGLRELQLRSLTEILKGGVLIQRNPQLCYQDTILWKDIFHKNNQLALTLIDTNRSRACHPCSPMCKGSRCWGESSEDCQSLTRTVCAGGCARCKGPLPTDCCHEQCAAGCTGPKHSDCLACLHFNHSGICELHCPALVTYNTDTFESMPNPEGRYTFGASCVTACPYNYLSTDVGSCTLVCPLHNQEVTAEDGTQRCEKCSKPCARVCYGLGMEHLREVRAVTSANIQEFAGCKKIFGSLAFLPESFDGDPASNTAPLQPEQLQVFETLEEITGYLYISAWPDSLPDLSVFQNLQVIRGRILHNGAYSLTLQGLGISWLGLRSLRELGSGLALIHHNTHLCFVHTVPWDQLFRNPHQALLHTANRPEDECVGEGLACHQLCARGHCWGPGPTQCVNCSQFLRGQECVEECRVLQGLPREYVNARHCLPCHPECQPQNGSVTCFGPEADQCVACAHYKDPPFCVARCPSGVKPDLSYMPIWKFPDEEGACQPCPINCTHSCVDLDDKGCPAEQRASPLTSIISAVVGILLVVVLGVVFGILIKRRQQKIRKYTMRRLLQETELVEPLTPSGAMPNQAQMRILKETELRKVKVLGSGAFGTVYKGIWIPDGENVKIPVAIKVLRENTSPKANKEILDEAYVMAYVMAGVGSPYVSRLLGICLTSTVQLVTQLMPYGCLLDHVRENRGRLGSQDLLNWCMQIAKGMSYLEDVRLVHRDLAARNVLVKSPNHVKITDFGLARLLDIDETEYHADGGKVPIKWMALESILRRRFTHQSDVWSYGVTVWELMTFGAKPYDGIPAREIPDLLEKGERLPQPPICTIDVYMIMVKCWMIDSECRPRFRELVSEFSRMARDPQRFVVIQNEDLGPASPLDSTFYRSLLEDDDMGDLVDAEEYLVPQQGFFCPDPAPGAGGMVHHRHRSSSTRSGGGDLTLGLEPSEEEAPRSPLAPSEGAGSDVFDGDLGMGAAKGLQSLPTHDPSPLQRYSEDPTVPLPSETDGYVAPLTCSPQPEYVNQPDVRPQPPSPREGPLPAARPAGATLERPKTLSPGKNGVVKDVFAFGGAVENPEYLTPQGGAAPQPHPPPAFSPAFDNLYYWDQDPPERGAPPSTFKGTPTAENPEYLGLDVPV

[4] = biological target: EGFR wild type (EGFR WT) (Homo sapiens (Human), UniProt P00533); assay: Cellular Phosphorylation Assay, Assay 5 (EGF-stimulated EGFR phosphorylation, NIH 3T3 cells); assay type: cell-based
Chain of EGFR wild type (EGFR WT) (P00533 25-1210): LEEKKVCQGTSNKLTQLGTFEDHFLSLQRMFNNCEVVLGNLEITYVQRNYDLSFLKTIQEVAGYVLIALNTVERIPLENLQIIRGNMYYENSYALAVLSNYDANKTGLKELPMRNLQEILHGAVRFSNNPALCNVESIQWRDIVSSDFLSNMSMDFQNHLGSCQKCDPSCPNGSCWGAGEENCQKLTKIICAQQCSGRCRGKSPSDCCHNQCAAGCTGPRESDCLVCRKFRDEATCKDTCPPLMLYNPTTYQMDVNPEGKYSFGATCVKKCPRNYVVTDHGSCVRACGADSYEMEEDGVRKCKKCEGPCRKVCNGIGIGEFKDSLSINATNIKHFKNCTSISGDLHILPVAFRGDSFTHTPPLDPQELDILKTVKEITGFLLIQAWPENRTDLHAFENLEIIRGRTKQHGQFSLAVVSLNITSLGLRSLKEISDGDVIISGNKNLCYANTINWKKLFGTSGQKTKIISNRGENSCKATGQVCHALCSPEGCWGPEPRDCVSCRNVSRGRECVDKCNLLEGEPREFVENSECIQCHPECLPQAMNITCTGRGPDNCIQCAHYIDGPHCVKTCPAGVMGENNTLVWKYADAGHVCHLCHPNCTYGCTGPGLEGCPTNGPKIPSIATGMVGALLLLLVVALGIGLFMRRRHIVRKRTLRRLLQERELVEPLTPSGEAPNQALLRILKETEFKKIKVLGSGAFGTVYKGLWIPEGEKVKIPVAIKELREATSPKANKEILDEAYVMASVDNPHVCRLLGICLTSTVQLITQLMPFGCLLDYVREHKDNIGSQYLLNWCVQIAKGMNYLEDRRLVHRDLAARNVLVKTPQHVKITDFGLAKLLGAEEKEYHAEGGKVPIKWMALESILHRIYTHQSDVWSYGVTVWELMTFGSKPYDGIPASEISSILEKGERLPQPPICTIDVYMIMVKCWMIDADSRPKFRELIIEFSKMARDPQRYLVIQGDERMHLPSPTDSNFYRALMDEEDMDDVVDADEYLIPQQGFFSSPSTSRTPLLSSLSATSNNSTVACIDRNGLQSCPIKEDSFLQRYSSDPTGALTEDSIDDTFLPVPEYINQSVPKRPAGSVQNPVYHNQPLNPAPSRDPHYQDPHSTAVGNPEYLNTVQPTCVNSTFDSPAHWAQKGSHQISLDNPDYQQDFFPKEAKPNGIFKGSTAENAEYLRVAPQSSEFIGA

[5] = EGF-stimulated EGFR WT phosphorylation
[6] = cellular ErbB2 YVMA phosphorylation
[7] = cellular EGFR WT phosphorylation, EGF-stimulated

Chain of ErbB2 WT (P04626 23-1255): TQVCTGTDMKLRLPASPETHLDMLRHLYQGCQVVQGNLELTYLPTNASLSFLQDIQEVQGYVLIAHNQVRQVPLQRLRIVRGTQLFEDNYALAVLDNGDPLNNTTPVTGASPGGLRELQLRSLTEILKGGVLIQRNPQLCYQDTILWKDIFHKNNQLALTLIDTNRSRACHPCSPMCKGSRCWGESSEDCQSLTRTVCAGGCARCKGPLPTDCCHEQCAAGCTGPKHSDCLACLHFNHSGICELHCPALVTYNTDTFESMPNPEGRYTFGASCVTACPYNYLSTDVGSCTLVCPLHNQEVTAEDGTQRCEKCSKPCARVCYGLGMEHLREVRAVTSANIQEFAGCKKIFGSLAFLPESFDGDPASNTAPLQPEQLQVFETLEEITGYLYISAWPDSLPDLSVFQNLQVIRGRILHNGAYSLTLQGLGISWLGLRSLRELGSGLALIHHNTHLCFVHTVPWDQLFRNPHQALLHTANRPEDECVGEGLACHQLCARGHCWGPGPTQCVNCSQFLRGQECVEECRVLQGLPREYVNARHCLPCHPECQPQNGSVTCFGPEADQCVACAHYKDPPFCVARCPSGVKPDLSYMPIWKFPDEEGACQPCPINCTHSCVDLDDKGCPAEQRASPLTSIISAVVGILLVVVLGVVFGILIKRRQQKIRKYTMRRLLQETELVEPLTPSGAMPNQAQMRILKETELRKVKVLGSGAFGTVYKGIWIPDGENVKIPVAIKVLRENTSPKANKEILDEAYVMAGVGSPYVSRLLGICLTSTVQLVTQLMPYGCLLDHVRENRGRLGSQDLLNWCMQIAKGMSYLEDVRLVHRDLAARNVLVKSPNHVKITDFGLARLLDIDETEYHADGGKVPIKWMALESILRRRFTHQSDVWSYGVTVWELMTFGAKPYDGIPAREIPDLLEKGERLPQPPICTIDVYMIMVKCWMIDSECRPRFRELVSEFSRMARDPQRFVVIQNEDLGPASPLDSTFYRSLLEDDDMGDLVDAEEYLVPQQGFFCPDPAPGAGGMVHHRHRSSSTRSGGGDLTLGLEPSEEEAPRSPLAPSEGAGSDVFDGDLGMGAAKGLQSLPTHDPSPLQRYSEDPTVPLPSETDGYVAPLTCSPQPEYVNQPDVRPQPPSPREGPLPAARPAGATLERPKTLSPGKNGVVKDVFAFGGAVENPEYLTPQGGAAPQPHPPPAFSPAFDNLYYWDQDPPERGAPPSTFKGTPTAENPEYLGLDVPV
Chain of EGFR (P00533 25-1210): as the sequence (P00533 25-1210) above

Compound | IC50 ([1]; ErbB2 WT enzyme) | IC50 ([2]; EGFR enzyme) | IC50 ([3]; ErbB2 YVMA phosphorylation) | IC50 [4, 5] | IC50 ([1]; ErbB2 WT enzyme assay) | IC50 ([2]; EGFR enzyme assay) | IC50 [3, 6] | IC50 [4, 7]
C=CC(=O)N1CCCCC(c2ccc3ncnc(Nc4ccc(Oc5ccc6c(c5)ncn6C)c(C)c4)c3n2)C1 (centres unmarked) [Example 126, 1-(3-(4-((3-methyl-4-((1-methyl-1H-benzo[d]imidazol-5-yl)oxy)phenyl)amino)pyrido[3,2-d]pyrimidin-6-yl)azepan-1-yl)prop-2-en-1-one] | 12.3 nM | 1260 nM | 12.2 nM | 1770 nM |  |  |  | 
CC#CC(=O)N1CCC[C@@H](c2ccc3ncnc(Nc4ccc(Oc5ccn6ncnc6c5)c(C)c4F)c3n2)CC1 (single isomer, unassigned) [Example 212] | 66.2 nM | 3380 nM | 386 nM | ≥ 5000 nM |  |  |  | 
C=CC(=O)N1C[C@H]2CC[C@@H]1[C@@H](c1ccc3ncnc(Nc4ccc(Oc5cnc6c(c5)ncn6C)c(C)c4F)c3n1)C2 [Example 427] |  |  |  |  | 104 nM | 2990 nM | 56.4 nM | ≥ 5000 nM
C=CC(=O)N1C[C@H]2CC[C@H](c3ccc4ncnc(Nc5ccc(Oc6ccn7ncnc7c6)c(C)c5)c4n3)[C@H]2C1 [Example 409] |  |  |  |  | 43.1 nM | 1970 nM | 34.6 nM | ≥ 5000 nM
C=CC(=O)N1CCC(Oc2ccc3ncnc(Nc4ccc(Oc5cnn6ccnc6c5)c(Cl)c4)c3n2)CC1 [Example 54, 1-(4-((4-((3-chloro-4-(imidazo[1,2-b]pyridazin-7-yloxy)phenyl)amino)pyrido[3,2-d]pyrimidin-6-yl)oxy)piperidin-1-yl)prop-2-en-1-one] | 423 nM | 1380 nM | 40 nM | 1470 nM |  |  |  | 
C=CC(=O)N1CCN(c2ccc3ncnc(Nc4ccc(Oc5cnc6c(c5)ncn6C)c(C)c4F)c3n2)CC12CC2 [Example 450] |  |  |  |  | 67.3 nM | 480 nM | 9.8 nM | 1160 nM
C=CC(=O)N1[C@@H]2CC[C@H]1C[C@@H](c1ccc3ncnc(Nc4ccc(Oc5ccn6ncnc6c5)c(C)c4)c3n1)C2 [Example 215, 1-((1R,3r,5S)-3-(4-((4-([1,2,4]triazolo[1,5-a]pyridin-7-yloxy)-3-methylphenyl)amino)pyrido[3,2-d]pyrimidin-6-yl)-8-azabicyclo[3.2.1]octan-8-yl)prop-2-en-1-one] | 29.5 nM | 3310 nM | 29.5 nM | ≥ 5000 nM |  |  |  | 
C=C(C)c1ccc2ncnc(Nc3ccc(Oc4ccc5c(c4)ncn5C)c(C)c3)c2n1 [Example 24, N-(3-methyl-4-((1-methyl-1H-benzo[d]imidazol-5-yl)oxy)phenyl)-6-(prop-1-en-2-yl)pyrido[3,2-d]pyrimidin-4-amine] | 194 nM | ≥ 10000 nM | 70.6 nM | ≥ 5000 nM |  |  |  | 
C=CC(=O)N1CCC(Oc2ccc3ncnc(Nc4cc(Cl)c(Oc5ccc6cn(C)nc6c5)cc4F)c3n2)CC1 [Example 4, 1-(4-((4-((5-chloro-2-fluoro-4-((2-methyl-2H-indazol-6-yl)oxy)phenyl)amino)pyrido[3,2-d]pyrimidin-6-yl)oxy)piperidin-1-yl)prop-2-en-1-one] | 876 nM | ≥ 10000 nM | 392 nM | ≥ 5000 nM |  |  |  | 
C=CC(=O)N1CC[C@@H]2C[C@H]1CN2c1ccc2ncnc(Nc3cc(Cl)c(Oc4cnc5c(c4)ncn5C)cc3F)c2n1 [Example 456] |  |  |  |  | 711 nM | ≥ 10000 nM | 253 nM | ≥ 5000 nM
C=CC(=O)N1CCN(c2ccc3ncnc(Nc4ccc(Oc5ccc6scnc6c5)c(C)c4)c3n2)CC1(C)C [Example 432] |  |  |  |  | 37 nM | 210 nM | 15.2 nM | 281 nM
CC#CC(=O)N1[C@@H]2CC[C@H]1C[C@@H](c1ccc3ncnc(Nc4cc(C)c(Oc5ccn6ncnc6c5)cc4F)c3n1)C2 [Example 208, 1-((1R,3r,5S)-3-(4-((4-([1,2,4]triazolo[1,5-a]pyridin-7-yloxy)-2-fluoro-5-methylphenyl)amino)pyrido[3,2-d]pyrimidin-6-yl)-8-azabicyclo[3.2.1]octan-8-yl)but-2-yn-1-one] | 172 nM | ≥ 10000 nM | 328 nM | ≥ 5000 nM |  |  |  | 
C=CC(=O)N1C[C@@H]2C[C@H](c3ccc4ncnc(Nc5ccc(Oc6ccc7c(c6)ncn7C)c(C)c5F)c4n3)C[C@H]1C2 [Example 389] |  |  |  |  | 20.4 nM | 277 nM | 31.1 nM | 685 nM

The next lines start with the values.

IC50 ([1]; ErbB2 WT enzyme) | IC50 ([2]; EGFR enzyme) | IC50 ([3]; ErbB2 YVMA phosphorylation) | IC50 [4, 5] | IC50 ([1]; ErbB2 WT enzyme assay) | IC50 ([2]; EGFR enzyme assay) | IC50 [3, 6] | IC50 [4, 7] | Compound
 |  |  |  | 56 nM | 1990 nM | 47.3 nM | 3170 nM | C=CC(=O)N1CCCC(c2ccc3ncnc(Nc4cc(C)c(Oc5ccn6ncnc6c5)cc4F)c3n2)C1 (centres unmarked) [Example 370]
184 nM | 4430 nM | 95.6 nM | 3460 nM |  |  |  |  | C=CC(=O)N1CCN(c2ccc3ncnc(Nc4ccc(Oc5ccn6ncnc6c5)c(C(F)(F)F)c4)c3n2)CC1(C)C [Example 242, 1-(4-(4-((4-([1,2,4]triazolo[1,5-a]pyridin-7-yloxy)-3-(trifluoromethyl)phenyl)amino)pyrido[3,2-d]pyrimidin-6-yl)-2,2-dimethylpiperazin-1-yl)prop-2-en-1-one]
 |  |  |  | 119 nM | ≥ 10000 nM | 68.8 nM | ≥ 5000 nM | CC#CC(=O)N1CC[C@@H]2C[C@H]1CN2c1ccc2ncnc(Nc3cc(Cl)c(Oc4ccn5ncnc5c4)cc3F)c2n1 [Example 315]
 |  |  |  | 55.5 nM | 1580 nM | 44 nM | 3360 nM | C=CC(=O)N1C[C@@H]2C[C@H]1C[C@H]2c1ccc2ncnc(Nc3cc(C)c(Oc4ccn5ncnc5c4)cc3F)c2n1 [Example 373]
27.3 nM | 6140 nM | 76.1 nM | 2730 nM |  |  |  |  | CC#CC(=O)N1CCN(c2ccc3ncnc(Nc4ccc(Oc5ccn6ncnc6c5)c(C)c4F)c3n2)CC12CC2 [Example 182, 1-(7-(4-((4-([1,2,4]triazolo[1,5-a]pyridin-7-yloxy)-2-fluoro-3-methylphenyl)amino)pyrido[3,2-d]pyrimidin-6-yl)-4,7-diazaspiro[2.5]octan-4-yl)but-2-yn-1-one]
 |  |  |  | 10000 nM | ≥ 10000 nM | 16.1 nM | ≥ 5000 nM | C=CC(=O)N1CCN(c2ccc3ncnc(Nc4cc(Cl)c(Oc5ccn6ncnc6c5)cc4F)c3n2)C[C@H]1C(C)(C)C [Example 309]
342 nM | ≥ 10000 nM | 25.7 nM | ≥ 5000 nM |  |  |  |  | C=CC(=O)N1CCN(c2ccc3ncnc(Nc4ccc(Oc5ccc6c(c5)ncn6C)c(C)c4F)c3n2)C[C@@H]1C1CC1 [Example 162, (S)-1-(2-cyclopropyl-4-(4-((2-fluoro-3-methyl-4-((1-methyl-1H-benzo[d]imidazol-5-yl)oxy)phenyl)amino)pyrido[3,2-d]pyrimidin-6-yl)piperazin-1-yl)prop-2-en-1-one]
 |  |  |  | 127 nM | ≥ 10000 nM | 556 nM | ≥ 5000 nM | C=C(C)C(=O)N1CCN(c2ccc3ncnc(Nc4ccc(Oc5ccn6ncnc6c5)c(C)c4F)c3n2)CC1 [Example 364]
 |  |  |  | 1.2 nM | 29.4 nM | 4.1 nM | 66.2 nM | C=CC(=O)N1CCN(c2ccc3ncnc(Nc4ccc(Oc5ccn6ncnc6c5)c(Cl)c4F)c3n2)C[C@@H]1C(F)F (racemic) [Example 299]
 |  |  |  | 23.9 nM | 368 nM | 19.8 nM | 238 nM | C=CC(=O)N1C[C@@H]2C[C@H](c3ccc4ncnc(Nc5ccc(Oc6ccn7ncnc7c6)c(C)c5F)c4n3)C[C@H]1C2 [Example 391]
 |  |  |  | 29.3 nM | 2680 nM | 35.8 nM | ≥ 5000 nM | C=CC(=O)N(C)[C@@H]1CCN(c2ccc3ncnc(Nc4ccc(Oc5ccn6ncnc6c5)c(C)c4F)c3n2)C1 [Example 349]
 |  |  |  | 50.5 nM | 2330 nM | 21.2 nM | ≥ 5000 nM | C=CC(=O)N1CCN(c2ccc3ncnc(Nc4ccc(Oc5ccn6ncnc6c5)c(Cl)c4F)c3n2)C[C@@H]1C(C)C [Example 293]
314 nM | ≥ 10000 nM | 73.4 nM | ≥ 5000 nM |  |  |  |  | CC#CC(=O)N1CCN(c2ccc3ncnc(Nc4ccc(Oc5ccn6ncnc6c5)c(C)c4F)c3n2)C[C@@H]1COC [Example 180, (R)-1-(4-(4-((4-([1,2,4]triazolo[1,5-a]pyridin-7-yloxy)-2-fluoro-3-methylphenyl)amino)pyrido[3,2-d]pyrimidin-6-yl)-2-(methoxymethyl)piperazin-1-yl)but-2-yn-1-one]
8 nM | 443 nM | 27.7 nM | 437 nM |  |  |  |  | CC#CC(=O)N1CCN(c2ccc3ncnc(Nc4ccc(Oc5ccn6ncnc6c5)c(Cl)c4F)c3n2)C[C@H]1C [Example 178, (R)-1-(4-(4-((4-([1,2,4]triazolo[1,5-a]pyridin-7-yloxy)-3-chloro-2-fluorophenyl)amino)pyrido[3,2-d]pyrimidin-6-yl)-2-methylpiperazin-1-yl)but-2-yn-1-one]
38 nM | 378 nM | 5 nM | 49.5 nM |  |  |  |  | C=CC(=O)N1C[C@@H]2C[C@H]1CN2c1ccc2ncnc(Nc3ccc(Oc4ccn5ncnc5c4)c(C)c3F)c2n1 [Example 95, 1-((1S,4S)-5-(4-((4-([1,2,4]triazolo[1,5-a]pyridin-7-yloxy)-2-fluoro-3-methylphenyl)amino)pyrido[3,2-d]pyrimidin-6-yl)-2,5-diazabicyclo[2.2.1]heptan-2-yl)prop-2-en-1-one]
 |  |  |  | 148 nM | ≥ 10000 nM | 933 nM | ≥ 5000 nM | C=CC(=O)N1CC[C@H]2C[C@@H]1CN2c1ccc2ncnc(Nc3cc(Cl)c(Oc4ccn5ncnc5c4)cc3F)c2n1 [Example 439]
